According to ChEMBL document CHEMBL5360573, “Discovery of novel tryptamine derivatives as GluN2B subunit-containing NMDA receptor antagonists via pharmacophore-merging strategy with orally available therapeutic effect of cerebral ischemia” (Eur J Med Chem, 2023):

What follows are molecules tested on SH-SY5Y (assay: Neuroprotective activity against NMDA-induced cell injury in human SH-SY5Y cells assessed as cell viability at 5 uM incubated for 6 hrs followed by NMDA treatment for 0.5 hrs and subsequent replacement of fresh medium without compounds by MTT assay relative to control). Conditions: time 6.5 hrs, read-out: Activity.
Format: functional

Compound	viability at 5 µM [%]
O=C(/C=C/c1ccc(O)cc1)NCCc1cn(CC2CC2)c2ccccc12	9.7
CCn1cc(CCNC(=O)/C=C/c2ccc(O)cc2)c2ccccc21	19.9
O=C(/C=C/c1ccc(O)cc1)NCCc1cn(Cc2ccc(F)cc2)c2ccccc12	20.8
CCCn1cc(CCNC(=O)/C=C/c2ccc(O)cc2)c2ccccc21	25.1
O=C(CCc1ccc(O)cc1)NCCc1cn(Cc2ccccc2)c2ccccc12	52.1
O=C(/C=C/c1ccc(O)cc1)NCCc1cn(Cc2ccccc2F)c2ccccc12	24.7
COc1ccc(Cn2cc(CCNC(=O)/C=C/c3ccc(O)cc3)c3ccccc32)cc1	30.9
O=C(/C=C/c1ccc(O)cc1)NCCc1cn(Cc2cccc(F)c2)c2ccccc12	18.8
O=C(/C=C/c1ccc(O)cc1)NCCc1cn(Cc2ccccc2)c2ccccc12	52.8
O=C(/C=C/c1ccc(O)cc1)NCCc1cn(Cc2ccc(Cl)cc2)c2ccccc12	21.7
O=C(/C=C/c1ccc(O)cc1)NCCc1cn(Cc2ccc(Br)cc2)c2ccccc12	25.5
CCCCn1cc(CCNC(=O)/C=C/c2ccc(O)cc2)c2ccccc21	19.3
O=C(NCCc1cn(Cc2ccccc2)c2ccccc12)c1ccc(O)cc1	51.4

Each molecule was assayed on SH-SY5Y (assay: Neuroprotective activity against NMDA-induced cell injury in human SH-SY5Y cells assessed as cell viability at 0.5 uM incubated for 6 hrs followed by NMDA treatment for 0.5 hrs and subsequent replacement of fresh medium without compounds by MTT assay relative to control). Conditions: time 6.5 hrs, read-out: Activity.
Format: functional

Compound	viability at 0.5 µM [%]
O=C(/C=C/c1ccc(O)cc1)NCCc1cn(CC2CC2)c2ccccc12	18.6
CCn1cc(CCNC(=O)/C=C/c2ccc(O)cc2)c2ccccc21	22.4
O=C(/C=C/c1ccc(O)cc1)NCCc1cn(Cc2ccc(F)cc2)c2ccccc12	49.8
CCCn1cc(CCNC(=O)/C=C/c2ccc(O)cc2)c2ccccc21	13.5
O=C(CCc1ccc(O)cc1)NCCc1cn(Cc2ccccc2)c2ccccc12	50.9
O=C(/C=C/c1ccc(O)cc1)NCCc1cn(Cc2ccccc2F)c2ccccc12	32.4
COc1ccc(Cn2cc(CCNC(=O)/C=C/c3ccc(O)cc3)c3ccccc32)cc1	24.8
O=C(/C=C/c1ccc(O)cc1)NCCc1cn(Cc2cccc(F)c2)c2ccccc12	21.8
O=C(/C=C/c1ccc(O)cc1)NCCc1cn(Cc2ccccc2)c2ccccc12	42.8
O=C(/C=C/c1ccc(O)cc1)NCCc1cn(Cc2ccc(Cl)cc2)c2ccccc12	22.5
O=C(/C=C/c1ccc(O)cc1)NCCc1cn(Cc2ccc(Br)cc2)c2ccccc12	36.1
CCCCn1cc(CCNC(=O)/C=C/c2ccc(O)cc2)c2ccccc21	24.1
O=C(NCCc1cn(Cc2ccccc2)c2ccccc12)c1ccc(O)cc1	54.3

What follows are molecules tested on SH-SY5Y (assay: Neuroprotective activity against NMDA-induced cell injury in human SH-SY5Y cells assessed as cell viability at 0.05 uM incubated for 6 hrs followed by NMDA treatment for 0.5 hrs and subsequent replacement of fresh medium without compounds by MTT assay relative to control). Conditions: time 6.5 hrs, read-out: Activity.
Format: functional

Compound	viability at 0.05 µM [%]
O=C(/C=C/c1ccc(O)cc1)NCCc1cn(CC2CC2)c2ccccc12	19.9
CCn1cc(CCNC(=O)/C=C/c2ccc(O)cc2)c2ccccc21	19.9
O=C(/C=C/c1ccc(O)cc1)NCCc1cn(Cc2ccc(F)cc2)c2ccccc12	35.8
CCCn1cc(CCNC(=O)/C=C/c2ccc(O)cc2)c2ccccc21	17.6
O=C(CCc1ccc(O)cc1)NCCc1cn(Cc2ccccc2)c2ccccc12	45.3
O=C(/C=C/c1ccc(O)cc1)NCCc1cn(Cc2ccccc2F)c2ccccc12	32.4
COc1ccc(Cn2cc(CCNC(=O)/C=C/c3ccc(O)cc3)c3ccccc32)cc1	18.6
O=C(/C=C/c1ccc(O)cc1)NCCc1cn(Cc2cccc(F)c2)c2ccccc12	28.6
O=C(/C=C/c1ccc(O)cc1)NCCc1cn(Cc2ccccc2)c2ccccc12	33
O=C(/C=C/c1ccc(O)cc1)NCCc1cn(Cc2ccc(Cl)cc2)c2ccccc12	31.9
O=C(/C=C/c1ccc(O)cc1)NCCc1cn(Cc2ccc(Br)cc2)c2ccccc12	42.6
CCCCn1cc(CCNC(=O)/C=C/c2ccc(O)cc2)c2ccccc21	24.3
O=C(NCCc1cn(Cc2ccccc2)c2ccccc12)c1ccc(O)cc1	31.7
